Experimental data taken from PMC12892976, “Alkylation-based optimization of antifungal FPPS inhibitors yields a potent, broad-spectrum lipophilic zoledronate derivative” (mBio, 2025).
≈ marks a conversion by molar mass, not a printed value.

How the values were obtained:
[1] = test system: Aspergillus fumigatus; assay: checkerboard drug interaction (FICI, MICc); format: cell-based;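 also: simplified diagonal checkerboard screen pairing antifungals with FPPS inhibitors against Aspergillus fumigatus, with FICI calculated under the Loewe additivity model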
Description: (§1) Drug interactions between antifungals and FPPS inhibitors were investigated using a simplified checkerboard diagonal screening method ([45]). […] FICIs were determined according to the Loewe additivity model ([17]).

[2] = test system: Aspergillus flavus; assay: checkerboard drug interaction (FICI, MICc); format: cell-based; design: INH MICc (KET:INH) / INH MICc (FLC:INH): unit not given beside the values;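 also: simplified diagonal checkerboard screen pairing azole antifungals with FPPS inhibitors, FICI calculated under the Loewe additivity model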
[3] = test system: Candida albicans; assay: MIC/MFC broth microdilution (CLSI); format: cell-based; settings: Candida albicans SC5314
Description: (§2) Antifungal susceptibility was determined by broth microdilution according to the CLSI guidelines described in M27-Ed4 ([16]). […] MFC was determined by back-plating drug-treated cultures from MIC broths onto SDA plates. The MFC was defined as the lowest concentration from which no colonies could be cultured.

[4] = test system: Aspergillus flavus; assay: MIC/MFC broth microdilution (CLSI); settings: ATCC204304
Description: as §2

[5] = test system: Microsporum canis; assay: checkerboard drug interaction (FICI, MICc); format: cell-based;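 also: simplified diagonal checkerboard screen pairing antifungals with FPPS inhibitors, FICI calculated under the Loewe additivity model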
Description: as §1

[6] = test system: Cryptococcus neoformans; assay: MIC/MFC broth microdilution (CLSI);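 also: susceptibility testing followed the CLSI M27-Ed4 broth microdilution document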
Description: as §2

[7] = test system: Candida glabrata; assay: checkerboard drug interaction (FICI, MICc); format: cell-based; settings: for INH FD (MIC-MICc fold decrease): fold decrease of inhibitor MIC;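 as to all read-outs here: simplified diagonal checkerboard screen pairing antifungals with FPPS inhibitors, FICI calculated under the Loewe additivity model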
Description: as §1

[8] = C. glabrata, FLC:INH combination
[9] = C. glabrata, ITR:INH combination

O=P(O)(O)C(O)(Cn1ccnc1)P(=O)(O)O [ZOL, zoledronate]
FICI ([1]; KET:ZOL): 0.75 | FICI ([1]; VOR:ZOL): 0.75 | bisphosphonate MICc ([1]; ZOL with 5FC): 512 | bisphosphonate MICc ([1]; ZOL with AMB): 16 | bisphosphonate MICc ([1]; ZOL with CAS): 128 | bisphosphonate MICc ([1]; ZOL with FLC): 64 | bisphosphonate MICc ([1]; ZOL with ITR): 2 | bisphosphonate MICc ([1]; ZOL with KET): 128 | bisphosphonate MICc ([1]; ZOL with VOR): 64 | FICI ([1]; with FLC, Aspergillus fumigatus): 0.75 | FICI ([1]; with ITR, Aspergillus fumigatus): 0.51 | FICI ([1]; with KET, Aspergillus fumigatus): 0.75 | FICI ([2]; 5FC:ZOL): 2 | FICI (FLC:INH) ([2]; A. flavus, Fractional Inhibitory Concentration Index, fluconazole + inhibitor): 0.63 | FICI (ITR:INH) ([2]; A. flavus, Fractional Inhibitory Concentration Index, itraconazole + inhibitor): 1.13 | FICI (KET:INH) ([2]; A. flavus, Fractional Inhibitory Concentration Index, ketoconazole + inhibitor): 1.5 | INH MICc (FLC:INH) ([2]; A. flavus, MIC of the inhibitor in combination with fluconazole): 32 | INH MICc (ITR:INH) ([2]; A. flavus, MIC of the inhibitor in combination with itraconazole): 32 | INH MICc (KET:INH) ([2]; A. flavus, MIC of the inhibitor in combination with ketoconazole): 128 | FLC FD (FLC:INH) ([2]; A. flavus, MIC-MICc fold decrease of fluconazole, negative = increase): 2 | ITR FD (ITR:INH) ([2]; A. flavus, MIC-MICc fold decrease of itraconazole, negative = increase): 1 | KET FD (KET:INH) ([2]; A. flavus, MIC-MICc fold decrease of ketoconazole, negative = increase): 1 | INH FD (FLC:INH) ([2]; A. flavus, MIC-MICc fold decrease of the inhibitor, with fluconazole): 8 | INH FD (ITR:INH) ([2]; A. flavus, MIC-MICc fold decrease of the inhibitor, with itraconazole): 8 | INH FD (KET:INH) ([2]; A. flavus, MIC-MICc fold decrease of the inhibitor, with ketoconazole): 2 | FICI ([2]; AMB:ZOL): 0.63 | FICI ([2]; CAS:ZOL): 1 | FICI ([2]; FLC:ZOL): 0.56 | FICI ([2]; ITR:ZOL): 1.06 | FICI ([2]; KET:ZOL): 1.25 | FICI ([2]; VOR:ZOL): 1 | bisphosphonate MICc ([2]; ZOL with 5FC): 512 | bisphosphonate MICc ([2]; ZOL with AMB): 64 | bisphosphonate MICc ([2]; ZOL with CAS): 256 | bisphosphonate MICc ([2]; ZOL with FLC): 32 | bisphosphonate MICc ([2]; ZOL with ITR): 32 | bisphosphonate MICc ([2]; ZOL with KET): 128 | bisphosphonate MICc ([2]; ZOL with VOR): 256 | FICI ([2]; with FLC, Aspergillus flavus): 0.63 | FICI ([2]; with ITR, Aspergillus flavus): 1.13 | FICI ([2]; with KET, Aspergillus flavus): 1.50 | MFC [3]: > 128 µg/mL | MIC [3]: 128 µg/mL (≈ 470 µM) | MIC / MEC [3]: 128 µg/mL (≈ 470 µM) | MFC [4]: > 128 µg/mL | MIC [4]: > 128 µg/mL | MIC / MEC [4]: >256 µg/mL | FICI ([5]; 5FC:ZOL): ≥4 | FICI ([5]; AMB:ZOL): 0.75 | FICI ([5]; CAS:ZOL): 0.56 | FICI ([5]; FLC:ZOL): 0.38 | FICI ([5]; ITR:ZOL): 0.75 | FICI ([5]; KET:ZOL): 0.31 | FICI ([5]; VOR:ZOL): 0.63 | bisphosphonate MICc ([5]; ZOL with 5FC): 64 | bisphosphonate MICc ([5]; ZOL with AMB): 16 | bisphosphonate MICc ([5]; ZOL with CAS): 4 | bisphosphonate MICc ([5]; ZOL with FLC): 8 | bisphosphonate MICc ([5]; ZOL with ITR): 16 | bisphosphonate MICc ([5]; ZOL with KET): 4 | bisphosphonate MICc ([5]; ZOL with VOR): 8 | MFC ([6]; Cryptococcus neoformans): > 128 µg/mL | MIC ([6]; Cryptococcus neoformans): 32 µg/mL (≈ 118 µM) | MIC / MEC ([6]; Cryptococcus neoformans H99): 32 µg/mL (≈ 118 µM) | FICI ([7]; 5FC:ZOL): 0.63 | FICI ([7]; AMB:ZOL): 0.63 | FICI [7, 8]: 0.09 | INH MICc ([7]; C. glabrata, FLC:INH combination, MIC of the inhibitor in combination with FLC): 1 | FLC FD (MIC-MICc fold decrease) ([7]; C. glabrata, FLC:INH combination, fold decrease of FLC MIC): 16 | INH FD (MIC-MICc fold decrease) [7, 8]: 8 | FICI [7, 9]: 0.16 | INH MICc ([7]; C. glabrata, ITR:INH combination, MIC of the inhibitor in combination with ITR): 1 | ITR FD (MIC-MICc fold decrease) ([7]; C. glabrata, ITR:INH combination, fold decrease of ITR MIC): 8 | INH FD (MIC-MICc fold decrease) [7, 9]: 8 | FICI ([7]; C. glabrata, KET:INH combination): 0.31
